Reference: US11572590B2, “Methods for evaluating tumor cell spheroids using 3D microfluidic cell culture device” (Dana-Farber Cancer Institute, Inc., priority 2017, dated 2023)
Read-outs that look alike come from different tables or passages of the source.

Experiments:
Assay type in all cases: biochemical
[1] = target: off-target kinases (Homo sapiens, UniProt P00533, DEL746-750); test: SelectScreen Kinase Profiling, single point inhibition and IC50 for off-target kinases; design: other: EGFR (ErbB1) d746-750; mutant y; 1000 μM; details: EGFR (ErbB1) d746-750, mutant y, LanthaScreen Binding
Sequence of off-target kinases (Homo sapiens, UniProt P00533, DEL746-750) (P00533 with tags, fused parts or gaps DEL746-750): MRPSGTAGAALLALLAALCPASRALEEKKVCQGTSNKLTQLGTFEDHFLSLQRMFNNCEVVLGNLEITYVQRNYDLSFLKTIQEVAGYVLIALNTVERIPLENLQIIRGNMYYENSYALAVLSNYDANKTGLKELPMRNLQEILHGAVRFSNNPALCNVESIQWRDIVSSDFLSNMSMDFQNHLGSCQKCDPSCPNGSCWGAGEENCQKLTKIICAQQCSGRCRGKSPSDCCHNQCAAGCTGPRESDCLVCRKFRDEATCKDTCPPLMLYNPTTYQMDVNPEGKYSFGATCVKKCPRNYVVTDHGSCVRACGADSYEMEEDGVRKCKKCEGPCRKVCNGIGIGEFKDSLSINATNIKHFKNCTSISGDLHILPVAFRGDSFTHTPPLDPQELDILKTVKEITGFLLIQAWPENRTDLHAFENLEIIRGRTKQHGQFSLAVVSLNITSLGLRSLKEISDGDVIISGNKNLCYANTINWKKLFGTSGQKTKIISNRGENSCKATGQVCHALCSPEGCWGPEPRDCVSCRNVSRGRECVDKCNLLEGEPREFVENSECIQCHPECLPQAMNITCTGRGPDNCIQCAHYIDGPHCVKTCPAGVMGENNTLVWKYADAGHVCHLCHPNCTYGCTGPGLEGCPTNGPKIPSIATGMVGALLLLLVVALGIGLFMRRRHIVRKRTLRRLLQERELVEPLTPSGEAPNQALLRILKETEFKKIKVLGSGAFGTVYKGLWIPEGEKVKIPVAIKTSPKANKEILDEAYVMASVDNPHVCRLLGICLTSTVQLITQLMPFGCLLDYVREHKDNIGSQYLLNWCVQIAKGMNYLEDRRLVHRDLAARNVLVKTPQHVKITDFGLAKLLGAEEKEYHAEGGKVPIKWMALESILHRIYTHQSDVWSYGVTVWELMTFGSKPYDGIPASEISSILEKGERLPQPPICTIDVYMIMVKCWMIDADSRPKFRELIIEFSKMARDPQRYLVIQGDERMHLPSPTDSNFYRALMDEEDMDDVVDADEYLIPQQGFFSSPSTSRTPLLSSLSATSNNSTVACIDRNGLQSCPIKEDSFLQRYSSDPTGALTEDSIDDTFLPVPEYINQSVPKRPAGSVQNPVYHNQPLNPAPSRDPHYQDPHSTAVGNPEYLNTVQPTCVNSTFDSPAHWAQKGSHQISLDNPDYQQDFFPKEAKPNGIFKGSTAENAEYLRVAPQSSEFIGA
Protocol: (§1) Biochemical single point inhibition and IC50 concentrations for TBK1, IKKε (IKBKE), and off-target kinases were determined at ThermoFisher Scientific using SelectScreen Kinase Profiling Services (Madison, Wis., USA) (Tables S4A and S4B-1-7). To determine cellular potency, the human colorectal cancer carcinoma cell line HCT116 (ATCC, Manassas, Va.) was maintained in T175 flasks in complete RPMI medium; RPMI 1640 supplemented with 10% FBS, 1× Penicillin-Streptomycin solution and 1×MEM (non-essential amino acids). HCT116 cells were grown to 90-95% confluency in T175 flasks containing complete RPMI medium and transfected in bulk using Lipofectamine 2000 (Invitrogen, Carlsbad, Calif.) with 70 μg of ISG54-luciferase reporter plasmid (Elim Biopharmaceuticals Inc., Hayward, Calif.). The reporter plasmid contains a luciferase gene expression cassette under the transcriptional regulation of the promoter of the human interferon stimulated gene 54 (ISG54). […] The assay plates were incubated for 5 hours at 37° C., followed by addition of One-Glo luciferase firefly reagent (Promega, Madison, Wis.) at 1:1 volume/well and luminescence was measured in an EnVision Multilabel Plate Reader (PerkinElmer, Santa Clara, Calif.). The EC50 values were calculated from the fit of the dose-response curves to a four-parameter equation. […]

[2] = target: off-target kinases (Homo sapiens, UniProt P05771); test: as above; design: other: PRKCB2 (PKC beta II); ZLYTE; ATP Km app; 1000 μM; details: PRKCB2 (PKC beta II), ZLYTE, ATP Km app
Sequence of off-target kinases (Homo sapiens, UniProt P05771) (P05771 1-673 isoform P05771-2): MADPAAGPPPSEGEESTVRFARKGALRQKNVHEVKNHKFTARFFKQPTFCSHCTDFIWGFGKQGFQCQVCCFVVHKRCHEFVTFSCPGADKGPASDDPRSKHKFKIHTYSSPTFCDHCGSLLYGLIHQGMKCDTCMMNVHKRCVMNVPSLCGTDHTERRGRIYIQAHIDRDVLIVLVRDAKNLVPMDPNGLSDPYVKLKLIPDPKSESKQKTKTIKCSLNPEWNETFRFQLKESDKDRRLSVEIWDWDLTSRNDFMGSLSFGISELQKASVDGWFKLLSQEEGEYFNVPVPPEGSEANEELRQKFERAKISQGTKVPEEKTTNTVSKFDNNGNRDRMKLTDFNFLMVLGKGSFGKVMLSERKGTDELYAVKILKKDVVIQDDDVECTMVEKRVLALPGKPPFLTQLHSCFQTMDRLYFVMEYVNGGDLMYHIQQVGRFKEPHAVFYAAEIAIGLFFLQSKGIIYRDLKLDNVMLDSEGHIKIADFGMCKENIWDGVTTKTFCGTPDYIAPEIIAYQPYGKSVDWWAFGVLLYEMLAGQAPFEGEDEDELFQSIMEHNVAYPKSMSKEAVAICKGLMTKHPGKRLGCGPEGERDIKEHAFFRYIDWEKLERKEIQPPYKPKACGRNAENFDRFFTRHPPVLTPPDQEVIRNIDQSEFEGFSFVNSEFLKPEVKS
Protocol: as §1, with “(ISG54). Transfection of the cells was allowed to take place for 6 hours, after which the cells were harvested by treatment with 0.25% trypsin EDTA (Corning Inc., Corning, N.Y.). Trypsinized cells were added to 384-well poly-d-lysine treated black clear bottom tissue culture assay plates (Greiner Bio-One GmbH, Kremsmünster, Austria) at a density of 20,000 cells/well in 80 μL of complete RPMI medium and incubated overnight. After 16-18 hours post-transfection, the assay plates were washed with PBS (Corning Inc., Corning, N.Y.), followed by addition of 80 μL/well of serum-free RPMI 1640 medium containing 1× Penicillin-Streptomycin solution, 1×MEM and 350 nL of DMSO or titrations of Compound 1.” for “(ISG54).”

[3] = target: T1, TBK1 (Homo sapiens, UniProt Q9UHD2); test: SelectScreen Kinase Profiling, IC50 for TBK1; details: ATP Km app, ZLYTE; for inhibition: TBK1
T1 sequence (Q9UHD2 1-729): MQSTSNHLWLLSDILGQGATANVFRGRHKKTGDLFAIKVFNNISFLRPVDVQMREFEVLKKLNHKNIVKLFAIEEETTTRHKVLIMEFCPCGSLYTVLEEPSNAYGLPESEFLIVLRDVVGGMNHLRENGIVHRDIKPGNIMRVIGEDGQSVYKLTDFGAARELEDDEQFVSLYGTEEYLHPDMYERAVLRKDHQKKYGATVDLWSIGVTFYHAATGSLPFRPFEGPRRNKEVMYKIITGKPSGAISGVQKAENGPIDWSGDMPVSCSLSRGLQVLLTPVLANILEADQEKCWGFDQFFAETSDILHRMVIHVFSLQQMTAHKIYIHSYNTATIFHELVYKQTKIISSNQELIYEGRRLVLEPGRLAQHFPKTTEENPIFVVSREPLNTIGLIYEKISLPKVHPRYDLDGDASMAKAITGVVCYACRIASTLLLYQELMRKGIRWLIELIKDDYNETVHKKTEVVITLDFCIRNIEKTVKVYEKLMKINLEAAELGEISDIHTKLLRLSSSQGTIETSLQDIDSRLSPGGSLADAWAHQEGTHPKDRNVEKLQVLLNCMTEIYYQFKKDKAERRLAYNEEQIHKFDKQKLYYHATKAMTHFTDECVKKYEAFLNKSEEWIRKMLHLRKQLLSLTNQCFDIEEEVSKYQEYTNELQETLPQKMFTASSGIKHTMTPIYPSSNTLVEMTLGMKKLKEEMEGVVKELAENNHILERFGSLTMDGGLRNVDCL
Protocol: Biochemical single point inhibition and IC50 concentrations for TBK1, IKKε (IKBKE), and off-target kinases were determined at ThermoFisher Scientific using SelectScreen Kinase Profiling Services (Madison, Wis., USA) (Tables S4A and S4B-1-7). To determine cellular potency, the human colorectal cancer carcinoma cell line HCT116 (ATCC, Manassas, Va.) was maintained in T175 flasks in complete RPMI medium; RPMI 1640 supplemented with 10% FBS, 1× Penicillin-Streptomycin solution and 1×MEM (non-essential amino acids). HCT116 cells were grown to 90-95% confluency in T175 flasks containing complete RPMI medium and transfected in bulk using Lipofectamine 2000 (Invitrogen, Carlsbad, Calif.) with 70 μg of ISG54-luciferase reporter plasmid (Elim Biopharmaceuticals Inc., Hayward, Calif.). The reporter plasmid contains a luciferase gene expression cassette under the transcriptional regulation of the promoter of the human interferon stimulated gene 54 (ISG54). Transfection of the cells was allowed to take place for 6 hours, after which the cells were harvested by treatment with 0.25% trypsin EDTA (Corning Inc., Corning, N.Y.). Trypsinized cells were added to 384-well poly-d-lysine treated black clear bottom tissue culture assay plates (Greiner Bio-One GmbH, Kremsmünster, Austria) at a density of 20,000 cells/well in 80 μL of complete RPMI medium and incubated overnight. After 16-18 hours post-transfection, the assay plates were washed with PBS (Corning Inc., Corning, N.Y.), followed by addition of 80 μL/well of serum-free RPMI 1640 medium containing 1× Penicillin-Streptomycin solution, 1×MEM and 350 nL of DMSO or titrations of Compound 1. Compound 1 titrations were generated by 1.5-fold dilution steps in two overlapping serial dilution series to generate a 40-point compound dose range. After incubation at 37° C. for 1 hour, the cells were stimulated with Poly(I:C) (InvivoGen, San Diego, Calif.) at a final concentration of 15 μg/mL in Optimem media (Life Technologies, Rockville, Md.). The assay plates were incubated for 5 hours at 37° C., followed by addition of One-Glo luciferase firefly reagent (Promega, Madison, Wis.) at 1:1 volume/well and luminescence was measured in an EnVision Multilabel Plate Reader (PerkinElmer, Santa Clara, Calif.). The EC50 values were calculated from the fit of the dose-response curves to a four-parameter equation. All EC50 values represent geometric mean values of a minimum of four determinations.

Work on N#Cc1cc(-c2ncnc(Nc3ccc(N4CCN(C5COC5)CC4)cc3)n2)ccc1OC1CCOCC1 [Compound 1, 5-(4-((4-(4-(oxetan-3-yl)piperazin-1-yl)phenyl)amino)-1,3,5-triazin-2-yl)-2-((tetrahydro-2H-pyran-4-yl)oxy)benzonitrile] yielded an inhibition ([1]; read-out: % Inhibition 1) of 14%, an inhibition ([1]; read-out: % Inhibition 2) of 13% and an inhibition ([2]; read-out: % Inhibition 1) of 12%. The inhibition ([2]; read-out: % Inhibition 2) was 8%, the inhibition ([2]; read-out: % Inhibition Avg) was 10% and the inhibition ([3]; read-out: % Inhibition 1) was 91%. For the same compound, the inhibition ([3]; read-out: % Inhibition 2) was 99%, the inhibition ([3]; read-out: % Inhibition Avg) was 95% and the Hillslope [3] was 1.12. For the same compound, the IC50 [3] was 1.04 nM, the “fold selectivity (IKBKE)” value ([3]; IC50 relative to IKBKE IC50) was 0.2 fold and the “fold selectivity (TBK1)” value ([3]; IC50 relative to TBK1 IC50) was 1.0 fold.
